Measured values taken from US8853227B2, “Methotrexate adjuvants to reduce toxicity and methods for using the same” (Tosk, Incorporated, priority 2008, dated 2014).

What was measured:
[1] = tested on: AS283 human lymphoma xenografts; assay: Mouse Study V (xenograft with AS283 implants); type: in vivo, C.B.-17 SCID mice
Description: Six-week-old male SCID mice were implanted with fragments of AS283 human lymphoma tumors. The tumors were allowed to reach 75-198 mg in weight (75-198 mm^3 in size) before the start of treatment. The experiment consisted of two treatment groups and one vehicle-treated control group, with ten animals per group, for a total of 30 mice on the first day of treatment.
(§1) TK-112690 was administered by ip injection [twice every 2 days for 5 injections with six hour interval (q6h×2, q2d×5)] at a dosage of 30 mg/kg/injection. MTX was administered by ip injection q2d×5 at a dosage of 5.0 mg/kg/injection three hours after the TK-112690 injection. The control group was treated with both vehicles, which were administered on the corresponding compound schedules.
Six-week-old male C.B.-17 SCID mice were acclimated in the laboratories for seven days prior to experimentation. Thirty-to-forty mg fragments of AS283 human lymphoma tumor were implanted sc in mice near the right flank using a 12-gauge trocar needle and allowed to grow. Tumors were allowed to reach 75-198 mg in weight (75-198 mm^3 in size) before the start of treatment. A sufficient number of mice were implanted so that tumors in a weight range as narrow as possible were selected for the trial on the day of treatment initiation (day 8 after tumor implantation). Those animals selected with tumors in the proper size range were assigned to the various treatment groups so that the median tumor weights on the first day of treatment were as close to each other as possible (162 mg for all groups). The experiment consisted of two treatment groups and one vehicle-treated control group with ten animals per group for a total of 30 mice on the first day of treatment.
A 15 mg/mL solution of TK-112690 was prepared daily by dissolving the compound in 100% DMSO (by vortexing as needed) and then adding PBS for a 3 mg/mL dosing solution. The final composition of the vehicle was 20% DMSO/80% PBS. The 25 mg/mL stock solution of MTX for injection was diluted each day of injection with saline to a 0.75 mg/mL dosing solution. Both compounds were administered ip by exact body weight using an injection volume of 0.1 mL for every 10 g of body weight.
as §1, with “intraperitoneal (ip)” for “ip”
The sc tumors were measured and the animals were weighed thrice weekly starting the day of the first treatment. Tumor volume was determined by caliper measurements (mm) and using the formula for an ellipsoid sphere: L×W^2/2=mm^3, where L and W refer to the larger and smaller perpendicular dimensions collected at each measurement. This formula is also used to calculate tumor weight, assuming unit density (1 mm^3=1 mg).
The study was terminated twenty one days after tumor implantation. Any animal found moribund or any animal whose tumor reached 4,000 mg, ulcerated or was sloughed off was euthanized prior to study termination.

[2] = Mouse Study III (infection study, WBC counts); type: in vivo, C57BL/6 mice; details: Day 11
Description: C57BL/6 mice (n=10/dose group), treated i.p. 50 mg/kg MTX on Day 1, 2, 3, 4, 6 and 8 along with 60 mg/kg TK-112690 i.p. 3 hr±MTX followed by single daily doses TK-112690 on days not treated with MTX. On Day 11, the animals were sacrificed and hematology performed on the resulting blood. Group 1=saline control, Group 2=MTX control and Group 3=MTX+TK-112690.
For the study whose data are presented in FIG. 4, C57BL/6 mice (n=10/dose group) were treated i.p. with 50 mg/kg MTX on Day 1, 2, 3, 4, 6 and 8 along with 60 mg/kg TK-112690 i.p. 3 hr±MTX followed by single daily doses TK-112690 on days not treated with MTX. On Day 11, the animals were bled and hematology performed on the resulting blood samples. Following the hematology measurements, the animals were sacrificed.

[3] = MTX alone 5.0 mg/kg/injection ip q2d×5, day 21
[4] = TK-112690 30 mg/kg/injection combined with MTX 5.0 mg/kg/injection, day 21

Row | Structure (SMILES) | median tumor weight value, % of the control on day 21 ([1]; MTX alone 5.0 mg/kg/injection ip q2d×5) | median tumor weight value smaller than the median at the start of treatment (162 mg) [1, 3] | median tumor weight value smaller than the median at the start of treatment (162 mg), % [1, 3] | systemic WBC level ([2]; 50 mg/kg MTX ip Day 1, 2, 3, 4, 6, 8, p<0.02 vs saline or MTX+TK-112690) | median tumor weight value smaller than the median at the start of treatment (162 mg) [1, 4] | median tumor weight value smaller than the median at the start of treatment (162 mg), % [1, 4] | median tumor weight value, % of the control on day 21 ([1]; TK-112690 30 mg/kg/injection ip (q6h×2, q2d×5) combined with MTX 5.0 mg/kg/injection) | tumor volumes, MTX+TK-112690 versus MTX ([1]; day 21, p=1.0) | protection from MTX-induced mucositis measured as prevention of WBC increase ([2]; 60 mg/kg ip 3 hr ± MTX 50 mg/kg)
1 | CN(Cc1cnc2nc(N)nc(N)c2n1)c1ccc(C(=O)N[C@@H](CCC(=O)O)C(=O)O)cc1 [MTX, N-[4-[[(2,4-diamino-6-pteridinyl)methyl]methylamino]benzoyl]-L-glutamic acid, reference compound] | 2.8% | 40.0 mg | 24.7% | increases systemic WBC | – | – | – | – | –
2 | Cc1cn2c(nc1=O)O[C@H]1[C@H](O)[C@@H](CO)O[C@H]12 [TK-112690, 2,2′-anhydro-5-methyluridine] | – | – | – | – | 9.0 mg | 5.6% | 3.5% | no statistical difference | protects from MTX-induced mucositis
